From patent publication US9555135B2, “Cobalt-based MRI contrast agent and imaging system” (BOARD OF REGENTS, THE UNIVERSITY OF TEXAS SYSTEM, priority 2011, dated 2017)

Legend:
[1] = Pharmacokinetic arm: cobalt disposition in plasma, tissues, urine and feces after intraprostatic CoCl2-NAC injection, total cobalt by ICP; type: in vivo, rat
Experimental: (§1) A toxicity and pharmacokinetic study of intraprostatically-administered cobalt dichloride-N-acetyl cysteine (CoCl2-NAC) was conducted in a rat model by the Pharmaceutical Development Center in the Department of Veterinary Medicine and Surgery (DVMS) facilities, U.T.M.D. Anderson Cancer Center, (Houston, Tex.). CoCl2-NAC is a novel MRI marker for prostate brachytherapy under development for use in localization of implanted radioactive seeds under MRI. […] The purpose of this study was to evaluate the distribution and potential toxicity of Co-NAC systemic exposure secondary to potential leakage from in-situ rupture of the Co-NAC-ECAMs in a male rat model.
The volume of CoCl2-NAC injected (9 μl) was predetermined on the assumption of 80-120 seeds leaking into the human prostate following implantation and scaling to a 150 gram male rat model. Cobalt disposition in plasma and tissues and organ toxicity were evaluated. For the pharmacokinetic arm, 60 male rats (20/group) were assigned to two dose groups and a vehicle control group and administered 1% (low concentration) and 10% (high concentration) CoCl2-NAC or vehicle control as an injection into the prostate. Following dosing, one cohort of 5 animals from each dose-level was sacrificed at 5, 30, and 60 minutes and 6 hours following the end of drug administration. Specific tissues (spleen, heart, brain, prostate, lung, kidney, liver, gut) from all animals were harvested, blotted, and weighed. An additional 3 animals were administered the high concentration and were maintained individually in metabolic cages. Urine and feces were collected at the end of 60 min, 6 and 24 hr intervals on the day prior to dosing and post dosing the following day. All samples were analyzed for total cobalt content by inductively-coupled plasma (ICP) analysis. For the toxicity arm, 30 male rats (10/group) were assigned to two dose groups and a vehicle control group and administered 1% and 10% CoCl2-NAC or vehicle control injected into the prostate. […]

[2] = Toxicity arm: single intraprostatic CoCl2-NAC injection, clinical pathology, gross and microscopic pathology; type: in vivo, rat
Experimental: as §1
The volume of CoCl2-NAC injected (9 μl) was predetermined on the assumption of 80-120 seeds leaking into the human prostate following implantation and scaling to a 150 gram male rat model. Cobalt disposition in plasma and tissues and organ toxicity were evaluated. For the pharmacokinetic arm, 60 male rats (20/group) were assigned to two dose groups and a vehicle control group and administered 1% (low concentration) and 10% (high concentration) CoCl2-NAC or vehicle control as an injection into the prostate. Following dosing, one cohort of 5 animals from each dose-level was sacrificed at 5, 30, and 60 minutes and 6 hours following the end of drug administration. Specific tissues (spleen, heart, brain, prostate, lung, kidney, liver, gut) from all animals were harvested, blotted, and weighed. An additional 3 animals were administered the high concentration and were maintained individually in metabolic cages. Urine and feces were collected at the end of 60 min, 6 and 24 hr intervals on the day prior to dosing and post dosing the following day. All samples were analyzed for total cobalt content by inductively-coupled plasma (ICP) analysis. For the toxicity arm, 30 male rats (10/group) were assigned to two dose groups and a vehicle control group and administered 1% and 10% CoCl2-NAC or vehicle control injected into the prostate. Groups of animals were sacrificed and necropsied on Study Days 1 (24 hrs) and 14 and blood and tissues collected for evaluation of clinical pathology and organ toxicity.

[3] = Relaxivity measurements on 1.5-T clinical MRI scanner; type: physicochemical
Experimental: All studies were performed on a 1.5-T clinical MRI scanner (Excite HD, GE Healthcare Technologies, Waukesha, Wis.) equipped with a high-performance gradient hardware package (Cardiac Resonance Module) and multichannel, fast-receiver hardware. The maximal achievable slew rate was 120 mT/m/s, maximal amplitude was 23 mT/m, and receiver bandwidth was 500 kHz. For relaxation measurements, the samples were placed in a room temperature water bath and imaged using a quadrature knee coil. T1-weighted measurements used an inversion recovery spin-echo technique (repetition time [TR]/[…] [TE], 5,000 ms/10 ms; inversion time, 50-4,000 ms). The T2-weighted measurements used a spin echo sequence (TR, 5,000 ms; TE, 20-1,000 ms). T2*-weighted measurements used a multi-echo, fast, gradient echo acquisition (TR, 600 ms; TE, 2-57 ms, with an echo spacing of 3.3 ms). All imaging data were analyzed using in-house software written in MATLAB (MathWorks, Natick, Mass.). The MRI sequences used for the ex vivo experiments have previously been described (see, Shetty, A. M., et al., Journal of Magnetic Resonance Imaging, Vol. 26, pp. 1672-1677 (2007)) and used a high-resolution, three-dimensional, spoiled gradient recalled echo acquisition (TR/TE, 15.6 ms/2.5 ms; flip angle, 60°; voxel size, 0.4×0.4×0.8 mm, receiver bandwidth, 488.3 Hz/pixel). The large flip angle was used to accentuate the signal from the ECAMs (with lower T1-weighted relaxation times) against the background. The high bandwidth and short echo time were chosen to minimize susceptibility artifacts in the region of the titanium markers.
Relaxivity measurements were obtained using the slope of the weighted least-squares regression of the relaxation rate versus concentration. […] The ratio of the relaxivities were >1 (r2/r1=1.21±0.29), which is consistent with T1-weighted positive contrast agents.

[4] = T1-weighted MRI visualization of contrast agent in seeds in agarose phantom
Experimental: Initially, the titanium and acrylic seeds were custom designed to have an outer and inner diameter of 3 mm and 1.5 mm and an outer length and inner hollow length of 4.5 mm and 3.5 mm, respectively. After injection of the cobalt-chloride complex contrast (CoCl2-NAC) agent into the manufactured seeds, MRI was performed on the seeds and strand-like combinations. For the canine prostate experiments, standard nonradioactive titanium seeds were incorporated into a synthesized strand, with acrylic and glass tubes cut with an outer diameter of 0.8 mm and length of 5.5 mm, injected with the CoCl2-NAC agent ([…]), and closed on the ends with two polymer taps.
All studies involving animals or animal tissues were performed under an Institutional Animal Care and Use Committee-approved protocol. For this experiment, after completion of another investigator's in vivo experiments, a canine prostate was excised at necropsy, placed in normal saline, and fixed in agarose gel (10% by weight, Type-A, Sigma-Aldrich, St. Louis, Mo.). The ECAMs were subsequently inserted into the prostate and imaged using MRI. Similarly, the ECAMs were inserted into an in-house-manufactured agarose phantom for direct visualization. The signal intensities of the agarose and prostatic tissue were similar on T1 weighted MRI, allowing substantial preliminary assessment of the relative contrast of the ECAMs without a tissue-based phantom. 1.5-T MRI T1-weighted sequences for imaging marker experiments.
All studies were performed on a 1.5-T clinical MRI scanner (Excite HD, GE Healthcare Technologies, Waukesha, Wis.) equipped with a high-performance gradient hardware package (Cardiac Resonance Module) and multichannel, fast-receiver hardware. The maximal achievable slew rate was 120 mT/m/s, maximal amplitude was 23 mT/m, and receiver bandwidth was 500 kHz. For relaxation measurements, the samples were placed in a room temperature water bath and imaged using a quadrature knee coil. T1-weighted measurements used an inversion recovery spin-echo technique (repetition time [TR]/[…] [TE], 5,000 ms/10 ms; inversion time, 50-4,000 ms). The T2-weighted measurements used a spin echo sequence (TR, 5,000 ms; TE, 20-1,000 ms). T2*-weighted measurements used a multi-echo, fast, gradient echo acquisition (TR, 600 ms; TE, 2-57 ms, with an echo spacing of 3.3 ms). All imaging data were analyzed using in-house software written in MATLAB (MathWorks, Natick, Mass.). […]

androgen receptor = androgen receptor (Homo sapiens, UniProt P10275); settings: concentration; cited from earlier work
Sequence of androgen receptor (P10275 whole entry, species assumed): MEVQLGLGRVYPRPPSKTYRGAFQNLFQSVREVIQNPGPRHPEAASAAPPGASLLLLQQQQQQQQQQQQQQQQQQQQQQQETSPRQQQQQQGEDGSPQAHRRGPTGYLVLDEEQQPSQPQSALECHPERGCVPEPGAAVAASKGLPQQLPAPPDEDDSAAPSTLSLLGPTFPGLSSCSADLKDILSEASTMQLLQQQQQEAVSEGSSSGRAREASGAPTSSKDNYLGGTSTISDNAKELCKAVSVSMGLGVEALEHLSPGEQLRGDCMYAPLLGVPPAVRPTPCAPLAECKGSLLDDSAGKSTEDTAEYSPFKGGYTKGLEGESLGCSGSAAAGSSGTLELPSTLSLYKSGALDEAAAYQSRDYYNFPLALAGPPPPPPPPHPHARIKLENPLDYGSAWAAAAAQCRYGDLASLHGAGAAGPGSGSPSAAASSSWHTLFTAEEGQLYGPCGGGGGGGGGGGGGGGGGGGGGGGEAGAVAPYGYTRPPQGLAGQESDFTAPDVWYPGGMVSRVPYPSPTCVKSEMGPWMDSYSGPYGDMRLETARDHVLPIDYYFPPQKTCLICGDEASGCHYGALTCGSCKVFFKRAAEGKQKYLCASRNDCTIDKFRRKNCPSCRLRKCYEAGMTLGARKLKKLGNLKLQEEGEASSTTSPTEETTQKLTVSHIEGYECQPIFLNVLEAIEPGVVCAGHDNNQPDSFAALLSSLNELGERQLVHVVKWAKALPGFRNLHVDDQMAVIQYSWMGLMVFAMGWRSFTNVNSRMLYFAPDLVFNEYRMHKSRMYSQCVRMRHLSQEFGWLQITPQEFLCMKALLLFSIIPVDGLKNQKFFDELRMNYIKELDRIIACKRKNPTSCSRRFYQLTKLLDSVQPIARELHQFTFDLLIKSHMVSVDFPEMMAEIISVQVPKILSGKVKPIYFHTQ

Row | Compound | peri-prostatic cobalt concentration by 60 minutes ([1]; high dose group (10%), 4 of 5 animals) | cobalt in kidney tissue ([1]; low dose group (1%)) | cobalt in plasma ([1]; low dose group (1%)) | alterations in group means of hematological or clinical chemistry parameters ([2]; 1% and 10% CoCl2-NAC, Study Days 1 and 14) | microscopic examination (histopathology) ([2]; 1% and 10% CoCl2-NAC, any of the tested dose levels) | test article-related morbidity or mortality ([2]; 1% and 10% CoCl2-NAC, intraprostatic, male rat) | no-observed-adverse-effect-level (NOAEL) ([2]; single intra-prostatic administration, male rat, highest dose tested) [% CoCl2-NAC solution] | test article-related adverse clinical signs ([2]; toxicology arm, 1% and 10% CoCl2-NAC) | ratio of the relaxivities r2/r1 [3] | spin-lattice relaxivity (r1) ([3]; room temperature water bath) [mM⁻¹ s⁻¹] | spin-spin relaxivity (r2) ([3]; room temperature water bath) [mM⁻¹ s⁻¹] | visualization of acrylic and glass hollow seeds containing the agent ([4]; 0.5-5 μL of aqueous solution (0.3-10 wt. %), phantom, 1.5-T MRI) | visualization inside the titanium seed ([4]; T1-weighted MRI, phantom) | signal on T1-weighted MRI inside polymer seeds ([4]; concentrations of 0.5-10%, in phantom) | signal on three-dimensional T1-weighted spoiled gradient recalled acquisition, compared with the various agents tested ([4]; in phantom) | effect on transcriptional activity of androgen receptor (androgen receptor)
1 | CC(=O)N[C@@H](CS)C(=O)O.[Cl][Co][Cl] [CoCl2-NAC, cobalt-dichloride-N-acetyl cysteine] | not quantifiable | No cobalt was measurable | no measurable cobalt | No toxicologically-important dose-related alterations | no histopathologic lesions | No test article-related morbidity or mortality | 10 | No test article-related adverse clinical signs | 1.21±0.29 | 0.093 ± 0.022 | 0.105 ± 0.01 | well visualized | could not be visualized | increased signal | highest signal | 
2 | CC(C)(O)C(=O)Nc1ccc([N+](=O)[O-])c(C(F)(F)F)c1 [hydroxyflutamide] |  |  |  |  |  |  |  |  |  |  |  |  |  |  |  | enhance the transcriptional activity
